Measurements reported in patent publication US12077503B2, “Substituted cyclic amides and their use as herbicides” (FMC CORPORATION, priority 2015, dated 2024).
Where two headings read alike, the source gives them in different places.

Columns and labels:
Experiment in all cases: Test A postemergence
Type in all cases: in vivo
[1] = test system: Galium (catchweed bedstraw, Galium aparine); settings: Galium, post-emergence, 240 h; for pest or weed control at 125 g/ha: 125 g ai/ha; for pest or weed control at 125 g/ha / pest or weed control at 500 g/ha: postemergence; for pest or weed control at 31 g/ha: Postemergence, 31 g ai/ha, visual injury after approx. 10 d, 0 no effect, 100 complete control, read-out: Plant response rating, Galium; for pest or weed control at 31 g/ha / pest or weed control at 500 g/ha: 0 to 100 scale; for pest or weed control at 500 g/ha: 500 g ai/ha, 0 is no effect, 100 is complete control
Method in brief: (§1)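 Visual injury, scored on a 0–100 scale relative to untreated controls, was recorded about 10 d after application. Treatments were a preemergence soil spray over planted seeds or a postemergence spray on plants at the one- to two-leaf stage, 2 to 10 cm tall, all in loam soil–sand blend in the greenhouse.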

[2] = test system: pigweed (Amaranthus retroflexus); settings: Amaranthus retroflexus, post-emergence, 240 h; for pest or weed control at 125 g/ha: 125 g ai/ha; for pest or weed control at 125 g/ha / pest or weed control at 500 g/ha: postemergence; for pest or weed control at 31 g/ha: Postemergence, 31 g ai/ha, visual injury after approx. 10 d, 0 no effect, 100 complete control, read-out: Plant response rating, Pigweed; for pest or weed control at 31 g/ha / pest or weed control at 500 g/ha: 0 to 100 scale; for pest or weed control at 500 g/ha: 500 g ai/ha, 0 is no effect, 100 is complete control
Method in brief: as §1

[3] = test system: ragweed (common ragweed, Ambrosia elatior); settings: Ambrosia artemisiifolia, post-emergence, 240 h; for pest or weed control at 125 g/ha: 125 g ai/ha; for pest or weed control at 125 g/ha / pest or weed control at 500 g/ha: postemergence; for pest or weed control at 31 g/ha: Postemergence, 31 g ai/ha, visual injury after approx. 10 d, 0 no effect, 100 complete control, read-out: Plant response rating, Ragweed; for pest or weed control at 31 g/ha / pest or weed control at 500 g/ha: 0 to 100 scale; for pest or weed control at 500 g/ha: 500 g ai/ha, 0 is no effect, 100 is complete control
Method in brief: as §1

[4] = test system: barnyardgrass (Echinochloa crus-galli); settings: Echinochloa crus-galli, post-emergence, 240 h; for pest or weed control at 125 g/ha: 125 g ai/ha; for pest or weed control at 125 g/ha / pest or weed control at 500 g/ha: postemergence; for pest or weed control at 31 g/ha: Postemergence, 31 g ai/ha, visual injury after approx. 10 d, 0 no effect, 100 complete control, read-out: Plant response rating, Barnyardgrass; for pest or weed control at 31 g/ha / pest or weed control at 500 g/ha: 0 to 100 scale; for pest or weed control at 500 g/ha: 500 g ai/ha, 0 is no effect, 100 is complete control
Method in brief: as §1

[5] = test system: wheat (Triticum aestivum); settings: Triticum aestivum, post-emergence, 240 h; for plant injury at 125 g/ha: 125 g ai/ha; for plant injury at 125 g/ha / plant injury at 500 g/ha: postemergence; for plant injury at 31 g/ha: Postemergence, 31 g ai/ha, visual injury after approx. 10 d, 0 no effect, 100 complete control, read-out: Plant response rating, Wheat; for plant injury at 31 g/ha / plant injury at 500 g/ha: 0 to 100 scale; for plant injury at 500 g/ha: 500 g ai/ha, 0 is no effect, 100 is complete control
Method in brief: as §1

corn (Zea mays) = settings: Zea mays, post-emergence, 240 h; for plant injury at 125 g/ha: 125 g ai/ha; for plant injury at 125 g/ha / plant injury at 500 g/ha: postemergence; for Corn plant response rating (crop injury, 0 = no effect, 100 = complete kill) at 31 g/ha: Postemergence, 31 g ai/ha, visual injury after approx. 10 d, 100 complete control; for Corn plant response rating (crop injury, 0 = no effect, 100 = complete kill) at 31 g/ha / plant injury at 500 g/ha: 0 to 100 scale; for plant injury at 500 g/ha: 500 g ai/ha, 0 is no effect, 100 is complete control
Method in brief: as §1

[6] = visual injury rating after approximately 10 d, read-out: Galium plant response rating (0 to 100 scale, 0 no effect, 100 complete control)
[7] = visual injury rating after approximately 10 d, read-out: Pigweed plant response rating (0 to 100 scale, 0 no effect, 100 complete control)
[8] = visual injury rating after approximately 10 d, read-out: Ragweed plant response rating (0 to 100 scale, 0 no effect, 100 complete control)
[9] = visual injury rating after approximately 10 d, read-out: Barnyardgrass plant response rating (0 to 100 scale, 0 no effect, 100 complete control)
[10] = visual injury rating after approximately 10 d, read-out: Wheat plant response rating (0 to 100 scale, 0 no effect, 100 complete control)
[11] = visual injury rating after approximately 10 d, read-out: Corn plant response rating (0 to 100 scale, 0 no effect, 100 complete control)
[12] = read-out: Galium plant response rating
[13] = read-out: Pigweed plant response rating
[14] = read-out: Ragweed plant response rating
[15] = read-out: Barnyardgrass plant response rating
[16] = read-out: Wheat plant response rating
[17] = read-out: Corn plant response rating
[18] = visual injury vs untreated controls after approx. 10 d, 0 = no effect, 100 = complete control, read-out: Galium plant response rating (0 to 100 scale)
[19] = visual injury vs untreated controls after approx. 10 d, 0 = no effect, 100 = complete control, read-out: Pigweed plant response rating (0 to 100 scale)
[20] = visual injury vs untreated controls after approx. 10 d, 0 = no effect, 100 = complete control, read-out: Ragweed plant response rating (0 to 100 scale)
[21] = visual injury vs untreated controls after approx. 10 d, 0 = no effect, 100 = complete control, read-out: Barnyardgrass plant response rating (0 to 100 scale)
[22] = visual injury vs untreated controls after approx. 10 d, 0 = no effect, 100 = complete control, read-out: Wheat plant response rating (0 to 100 scale)
[23] = visual injury vs untreated controls after approx. 10 d, 0 = no effect, 100 = complete control, read-out: Corn plant response rating (0 to 100 scale)

SMILES | pest or weed control at 125 g/ha [1, 6] [%] | pest or weed control at 31 g/ha [1] [%] | pest or weed control at 125 g/ha [2, 7] [%] | pest or weed control at 31 g/ha [2] [%] | pest or weed control at 125 g/ha [3, 8] [%] | pest or weed control at 31 g/ha [3] [%] | pest or weed control at 125 g/ha [4, 9] [%] | pest or weed control at 31 g/ha [4] [%] | plant injury at 125 g/ha [5, 10] [%] | plant injury at 31 g/ha [5] [%] | plant injury at 125 g/ha (corn (Zea mays); [11]) [%] | Corn plant response rating (crop injury, 0 = no effect, 100 = complete kill) at 31 g/ha (corn (Zea mays)) [%] | pest or weed control at 500 g/ha [1, 12] [%] | pest or weed control at 500 g/ha [2, 13] [%] | pest or weed control at 500 g/ha [3, 14] [%] | pest or weed control at 500 g/ha [4, 15] [%] | plant injury at 500 g/ha (corn (Zea mays); [17]) [%] | pest or weed control at 125 g/ha [1, 18] [%] | pest or weed control at 125 g/ha [2, 19] [%] | pest or weed control at 125 g/ha [3, 20] [%] | further results
CN1CC[C@H](c2cccc(OC(F)(F)F)c2)[C@@H](C(=O)Nc2ccc(F)c(F)c2F)C1=O [Compound 808] | 0 | 0 | 0 | 0 | 0 | 0 | 70 | 50 | 0 | 0 | 0 | 0 | – | – | – | – | – | – | – | – | –
CSc1ccccc1NC(=O)[C@H]1C(=O)N(C)CC[C@@H]1c1cccc(OC(F)(F)F)c1 [Compound 809] | 0 | 0 | 0 | 0 | 0 | 0 | 0 | 0 | 0 | 0 | 0 | 0 | – | – | – | – | – | – | – | – | –
CN1CC[C@H](c2ccc3c(c2)OC(F)(F)O3)[C@@H](C(=O)Nc2ccccc2C(F)(F)F)C1=O [Compound 811] | 0 | 0 | 0 | 0 | 0 | 0 | 40 | 0 | 0 | 0 | 0 | 0 | – | – | – | – | – | – | – | – | –
CN1CC[C@H](c2ccc3c(c2)OC(F)(F)O3)[C@@H](C(=O)Nc2cccc(F)c2F)C1=O [Compound 812] | 50 | 20 | 0 | 0 | 0 | 0 | 90 | 90 | 60 | 20 | 80 | 30 | – | – | – | – | – | – | – | – | –
CN1CC[C@H](c2ccc3c(c2)OC(F)(F)O3)[C@@H](C(=O)Nc2ccc(F)c(F)c2F)C1=O [Compound 813] | 30 | 20 | 0 | 0 | 0 | 0 | 80 | 40 | 30 | 0 | 40 | 30 | – | – | – | – | – | – | – | – | –
CN1C[C@H](c2cccc(C3CC3)c2)[C@@H](C(=O)Nc2ccccc2F)C1=O [Compound 815] | 50 | – | 20 | – | 0 | – | 100 | – | 30 | – | 50 | – | – | – | – | – | – | – | – | – | –
CN1C[C@H](c2csc3ccccc23)[C@@H](C(=O)Nc2ccccc2F)C1=O [Compound 1114] | – | – | – | – | – | – | – | – | – | – | – | – | 20 | 0 | 0 | 90 | 70 | – | – | – | pest or weed control at 125 g/ha ([1]; visual injury on 0 to 100 scale (0 no effect, 100 complete control), approx. 10 d, read-out: Galium plant response rating): 0%; pest or weed control at 125 g/ha ([2]; visual injury on 0 to 100 scale (0 no effect, 100 complete control), approx. 10 d, read-out: Pigweed plant response rating): 0%; pest or weed control at 125 g/ha ([3]; visual injury on 0 to 100 scale (0 no effect, 100 complete control), approx. 10 d, read-out: Ragweed plant response rating): 0%; pest or weed control at 125 g/ha ([4]; visual injury on 0 to 100 scale (0 no effect, 100 complete control), approx. 10 d, read-out: Barnyardgrass plant response rating): 80%; plant injury at 125 g/ha ([5]; visual injury on 0 to 100 scale (0 no effect, 100 complete control), approx. 10 d, read-out: Wheat plant response rating): 0%; plant injury at 500 g/ha [5, 16]: 30%; plant injury at 125 g/ha (corn (Zea mays); visual injury on 0 to 100 scale (0 no effect, 100 complete control), approx. 10 d, read-out: Corn plant response rating): 0%
CSc1ccccc1NC(=O)[C@H]1C(=O)N(C)CC[C@@H]1c1ccc(C(F)(F)F)cc1 [Compound 1227] | – | – | – | – | – | – | – | – | – | – | – | – | 0 | 30 | 0 | 70 | 0 | 0 | 20 | 0 | pest or weed control at 125 g/ha [4, 21]: 0%; plant injury at 125 g/ha [5, 22]: 0%; plant injury at 500 g/ha [5, 16]: 0%; plant injury at 125 g/ha (corn (Zea mays); [23]): 0%
CSc1ccccc1NC(=O)[C@H]1C(=O)N(C)C[C@@H]1c1ccc(F)cc1 [Compound 1236] | – | – | – | – | – | – | – | – | – | – | – | – | 60 | 40 | 40 | 100 | 90 | 50 | 20 | 0 | pest or weed control at 125 g/ha [4, 21]: 100%; plant injury at 125 g/ha [5, 22]: 0%; plant injury at 125 g/ha (corn (Zea mays); [23]): 60%
Cc1ccccc1NC(=O)[C@H]1C(=O)N(C)C[C@@H]1c1ccc(C(F)(F)F)cc1 [Compound 1239] | – | – | – | – | – | – | – | – | – | – | – | – | 60 | 50 | 60 | 80 | 70 | 60 | 50 | 20 | pest or weed control at 125 g/ha [4, 21]: 90%; plant injury at 125 g/ha [5, 22]: 30%; plant injury at 125 g/ha (corn (Zea mays); [23]): 50%
